The assay relates to CD2F1 mice, L1210 leukemia ip, survival T/C. The experiment in a line: NCI In Vivo Anticancer Drug Screen. Data for tumor model L1210 Leukemia (intraperitoneal) in CD2F1 (CDF1) mice. To be noted: higher = longer survival. A digest of the protocol:
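Activity against a transplanted murine tumor was judged by comparing the compound group with a vehicle group. The outcome in the treated animals was divided by that in the controls.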

Setting [1] is: endpoint: mean survival time, dose: 100.0 mg/kg/injection, schedule: Q01DX009 (ip), vehicle: saline with Tween-80.
Setting [2] is: endpoint: mean survival time, dose: 100.0 mg/kg/injection, schedule: Q04DX003 (ip), vehicle: saline with Tween-80.
[3] abbreviates: endpoint: mean survival time, dose: 200.0 mg/kg/injection, schedule: Q01DX009 (ip), vehicle: saline with Tween-80.
Setting [4] is: endpoint: mean survival time, dose: 200.0 mg/kg/injection, schedule: Q04DX003 (ip), vehicle: saline with Tween-80.
The mark [5] stands for this setting: endpoint: mean survival time, dose: 400.0 mg/kg/injection, schedule: Q01DX009 (ip), vehicle: saline with Tween-80.
[6] abbreviates: endpoint: mean survival time, dose: 400.0 mg/kg/injection, schedule: Q04DX003 (ip), vehicle: saline with Tween-80.
The mark [7] stands for this setting: endpoint: mean survival time, dose: 100.0 mg/kg/injection, schedule: Q01DX001 (ip), vehicle: saline with Tween-80.
The mark [8] stands for this setting: endpoint: mean survival time, dose: 200.0 mg/kg/injection, schedule: Q01DX001 (ip), vehicle: saline with Tween-80.
The mark [9] stands for this setting: endpoint: mean survival time, dose: 50.0 mg/kg/injection, schedule: Q01DX009 (ip), vehicle: saline with Tween-80.
Setting [10] is: endpoint: mean survival time, dose: 100.0 mg/kg/injection, schedule: Q04DX002 (ip), vehicle: saline with Tween-80.
Setting [11] is: endpoint: mean survival time, dose: 200.0 mg/kg/injection, schedule: Q04DX002 (ip), vehicle: saline with Tween-80.
The mark [12] stands for this setting: endpoint: mean survival time, dose: 400.0 mg/kg/injection, schedule: Q04DX002 (ip), vehicle: saline with Tween-80.
Where [13] appears, read: endpoint: mean survival time, dose: 25.0 mg/kg/injection, schedule: Q01DX009 (ip), vehicle: saline with Tween-80.
[14] abbreviates: endpoint: mean survival time, dose: 400.0 mg/kg/injection, schedule: Q01DX001 (ip), vehicle: saline with Tween-80.
Setting [15] is: endpoint: mean survival time, dose: 100.0 mg/kg/injection, schedule: Q01DX001 (ip), vehicle: saline.

From PubChem BioAssay AID256 (DTP/NCI, 2004) come the findings set out here.

Where “and” joins values, the source holds several entries; their conditions need not be identical. Identical values can stand only once. Inconclusive results and toxic doses are left out.

As for `Nc1nc2ncc(CNc3ccc(C(=O)NC(CCC(=O)O)C(=O)O)cc3)nc2c(=O)[nH]1.[NH-]C1CCCCC1[NH-].[Pt+2]` (configuration not stated), the T/C is 102 % of control and 104 % of control (endpoint: median survival time, dose: 3.12 mg/kg/injection, schedule: Q04DX003 (ip), vehicle: saline); 107 % of control and 108 % of control (endpoint: median survival time, dose: 6.25 mg/kg/injection, schedule: Q04DX003 (ip), vehicle: saline); 105 % of control (endpoint: median survival time, dose: 12.5 mg/kg/injection, schedule: Q04DX003 (ip), vehicle: saline); 116 % of control and 108 % of control (endpoint: median survival time, dose: 25.0 mg/kg/injection, schedule: Q04DX003 (ip), vehicle: saline); 114 % of control and 111 % of control (endpoint: median survival time, dose: 50.0 mg/kg/injection, schedule: Q04DX003 (ip), vehicle: saline); 113 % of control and 115 % of control (endpoint: median survival time, dose: 100.0 mg/kg/injection, schedule: Q04DX003 (ip), vehicle: saline). Also, the T/C (endpoint: median survival time, dose: 200.0 mg/kg/injection, schedule: Q04DX003 (ip), vehicle: saline) is 161 % of control.
As to `CC(=O)OCCc1nnnn1C`, the T/C under setting [1] is 101 % of control; the T/C under setting [2] is 104 % of control; the T/C under setting [3] is 104 % of control; the T/C under setting [4] was 104 % of control; the T/C under setting [5] is 104 % of control; the T/C under setting [6] was 101 % of control.
Take `Nc1ncnc(N)c1NC(=O)c1ccc(Cl)c([N+](=O)[O-])c1`: the T/C is 94 % of control under setting [2], 93 % of control under setting [4] and 88 % of control under setting [6].
Consider `CCn1c(=O)c2c(nc(Cl)n2C2OC(COC(C)=O)C(OC(C)=O)C(OC(C)=O)C2NC(C)=O)n(CC)c1=O` (configuration not stated), for which the T/C was 98 % of control (endpoint: mean survival time, dose: 12.5 mg/kg/injection, schedule: Q01DX005 (ip), vehicle: distilled water + Tween-80); 97 % of control (endpoint: mean survival time, dose: 25.0 mg/kg/injection, schedule: Q01DX005 (ip), vehicle: distilled water + Tween-80); 97 % of control (endpoint: mean survival time, dose: 50.0 mg/kg/injection, schedule: Q01DX005 (ip), vehicle: distilled water + Tween-80); 95 % of control (endpoint: mean survival time, dose: 100.0 mg/kg/injection, schedule: Q01DX005 (ip), vehicle: distilled water + Tween-80); 97 % of control (endpoint: mean survival time, dose: 200.0 mg/kg/injection, schedule: Q01DX005 (ip), vehicle: distilled water + Tween-80).
Turning to `CC(CO)CCC(=O)C(C)C1C(=O)CC2[C@H]3CC=C4C[C@H](O)CC[C@@]4(C)C3CC[C@@]12C` (some centres not stated), the T/C reads like this: (endpoint: mean survival time, dose: 50.0 mg/kg/injection, schedule: Q01DX001 (ip), vehicle: saline with Tween-80) 94 % of control; under setting [7], 97 % of control; under setting [8], 95 % of control.
As for `Cc1cc(Cl)ccc1NC(=O)OCCOc1ccc([N+](=O)[O-])cc1`, the T/C is, setting by setting: under setting [9], 96 % of control; under setting [1], 96 % of control; under setting [3], 100 % of control.
For `Clc1ccc(CCc2ccc(Cl)cc2)cc1`, the T/C under setting [9] is 102 % of control, the T/C under setting [1] was 98 % of control and the T/C under setting [3] is 102 % of control.
As to `Cc1cc(C(=O)c2ccccn2)c2cc(Cl)cc(Cl)c2n1`, the T/C was 93 % of control under setting [1]; 88 % of control under setting [2]; 91 % of control under setting [3]; 94 % of control under setting [4]; 87 % of control under setting [5]; 94 % of control under setting [6].
Consider `COc1ccc(C(C)c2ccccc2)cc1` (configuration not stated), for which the T/C is, setting by setting: under setting [1], 97 % of control; under setting [3], 95 % of control; under setting [5], 97 % of control.
Take `Nc1cccc2cnccc12`: the T/C was 100 % of control under setting [1]; 91 % of control under setting [2]; 98 % of control under setting [3]; 93 % of control under setting [4]; 96 % of control under setting [6].
`COc1cc(/C=C(\C#N)c2ccc([N+](=O)[O-])cc2)ccc1O`: the T/C is, setting by setting: under setting [10], 100 % of control; under setting [11], 87 % of control; under setting [12], 91 % of control.
On to `CCCCOC(=O)/C=C(\Br)C(=O)OCCCC`, for which the T/C reads like this: (endpoint: mean survival time, dose: 6.25 mg/kg/injection, schedule: Q01DX009 (ip), vehicle: saline with Tween-80) 92 % of control and 96 % of control; (endpoint: mean survival time, dose: 12.5 mg/kg/injection, schedule: Q01DX009 (ip), vehicle: saline with Tween-80) 94 % of control and 105 % of control; under setting [13], 95 % of control and 100 % of control; under setting [9], 100 % of control; under setting [1], 92 % of control.
Consider `C=C(C)C1C2CC3(C)C4(CO4)C4OC4C3(O)C1C(=O)O2` (configuration not stated), for which the T/C (endpoint: median survival time, dose: 0.25 mg/kg/injection, schedule: Q01DX009 (ip), vehicle: Klucel (hydroxypropylcellulose) (HPC)) was 100 % of control; the T/C (endpoint: median survival time, dose: 0.5 mg/kg/injection, schedule: Q01DX009 (ip), vehicle: Klucel (hydroxypropylcellulose) (HPC)) was 98 % of control; the T/C (endpoint: median survival time, dose: 1.0 mg/kg/injection, schedule: Q01DX009 (ip), vehicle: Klucel (hydroxypropylcellulose) (HPC)) was 103 % of control; the T/C (endpoint: median survival time, dose: 2.0 mg/kg/injection, schedule: Q01DX009 (ip), vehicle: Klucel (hydroxypropylcellulose) (HPC)) was 97 % of control.
Regarding `Cc1ccc(N2C(=O)CSC2=S)c(Br)c1`, the T/C was 101 % of control under setting [7], 101 % of control under setting [8] and 106 % of control under setting [14].
For the compound `O=C1C(O)=Cc2coc(=O)c3ccc(-c4ccccc4)c1c23`, the T/C under setting [7] was 91 % of control.
Take `N#Cc1cc(Cl)c(OCc2ccccc2)c(Cl)c1`: the T/C runs as follows: under setting [7], 87 % of control; under setting [14], 101 % of control.
Regarding `CCCCCCC[CH2][Sn]([CH2]CCCCCCC)([NH]S(=O)(=O)c1ccc(C)cc1)[NH]S(=O)(=O)c1ccc(C)cc1`, the T/C (endpoint: mean survival time, dose: 75.0 mg/kg/injection, schedule: Q01DX001 (ip), vehicle: other) is 113 % of control and the T/C (endpoint: mean survival time, dose: 150.0 mg/kg/injection, schedule: Q01DX001 (ip), vehicle: other) was 107 % of control.
For `O=C(COc1ccc(Br)cc1)Nc1cc(Cl)ccc1Cl`, the T/C was 87 % of control under setting [10], 95 % of control under setting [11] and 91 % of control under setting [12].
For `Nc1nc(N)c2nc3c4ccccc4c4ccccc4c3nc2n1`, the T/C by setting is: under setting [7], 95 % of control; under setting [1], 93 % of control; under setting [8], 91 % of control; under setting [14], 97 % of control.
On to `CN1CCC(O)(O)C(Br)C1` (configuration not stated), for which the T/C (endpoint: mean survival time, dose: 18.8 mg/kg/injection, schedule: Q01DX009 (ip), vehicle: saline) is 98 % of control; the T/C (endpoint: mean survival time, dose: 18.8 mg/kg/injection, schedule: Q04DX003 (ip), vehicle: saline) is 102 % of control; the T/C (endpoint: mean survival time, dose: 37.5 mg/kg/injection, schedule: Q01DX009 (ip), vehicle: saline) is 100 % of control; the T/C (endpoint: mean survival time, dose: 37.5 mg/kg/injection, schedule: Q04DX003 (ip), vehicle: saline) was 106 % of control; the T/C (endpoint: mean survival time, dose: 75.0 mg/kg/injection, schedule: Q01DX001 (ip), vehicle: saline) was 102 % of control; the T/C (endpoint: mean survival time, dose: 75.0 mg/kg/injection, schedule: Q01DX009 (ip), vehicle: saline) was 88 % of control. Moreover, where the note is “endpoint: mean survival time, dose: 75.0 mg/kg/injection, schedule: Q04DX003 (ip), vehicle: saline”, the T/C is 100 % of control.
With `CN(CC1CCCC1)C1CCCCC1`, under setting [15], the T/C was 98 % of control.
`COC1CC(O)C(OS(=O)(=O)c2ccc(C)cc2)C(C)O1` (configuration not stated): the T/C under setting [15] is 112 % of control; the T/C (endpoint: mean survival time, dose: 200.0 mg/kg/injection, schedule: Q01DX001 (ip), vehicle: saline) is 100 % of control; the T/C (endpoint: mean survival time, dose: 400.0 mg/kg/injection, schedule: Q01DX001 (ip), vehicle: saline) is 102 % of control.
`CC(=O)n1cc(F)c(=O)[nH]c1=O`: the T/C is 172 % of control (endpoint: mean survival time, dose: 16.5 mg/kg/injection, schedule: Q01DX009 (ip), vehicle: saline); 169 % of control under setting [13]; 105 % of control under setting [9].
Regarding `CN(C)N=Nc1ccccc1C(=O)NC#N`, the T/C (endpoint: mean survival time, dose: 9.38 mg/kg/injection, schedule: Q01DX009 (ip), vehicle: Klucel (hydroxypropylcellulose) (HPC)) is 101 % of control and 103 % of control and 104 % of control.
With `COC1OC(CN2C(=O)c3ccccc3C2=O)C2OC(C)(C)OC12` (configuration not stated), the T/C was 98 % of control under setting [1], 94 % of control under setting [3] and 98 % of control under setting [5].
On to `N=c1c2cnn(C3OC(CO)C(O)C3O)c2ncn1N` (configuration not stated), for which the T/C (endpoint: mean survival time, dose: 6.25 mg/kg/injection, schedule: Q01DX009 (ip), vehicle: water) was 103 % of control; the T/C (endpoint: mean survival time, dose: 12.5 mg/kg/injection, schedule: Q01DX009 (ip), vehicle: water) was 115 % of control and 112 % of control; the T/C (endpoint: mean survival time, dose: 50.0 mg/kg/injection, schedule: Q01DX009 (ip), vehicle: water) is 91 % of control.
